Measured values taken from US20240208950A1, “COMPOSITIONS AND METHODS FOR TREATMENT OF CERVICAL AND OVARIAN CANCER” (SOUTH DAKOTA BOARD OF REGENTS, priority 2021, published 2024).

How the values were obtained:
[1] = tested on: cleaved PARP in SiHa cells; experiment: Western blot for cleavage of PARP, SiHa; type: cell-based, human; settings: 24 hours
Experimental: The effect of Br-ORM on protein expression in cervical cancer cells were determined by Western blot analysis by using specific antibodies.
It was observed that Br-ORM exerts potent growth inhibitory effects, so the effect of Br-ORM on apoptosis induction was further examined. Cervical cancer cells were treated with Br-ORM (10 μM) for 24 hours and the apoptosis inducing effect of Br-ORM was analyzed by Annexin V staining and Western blot analysis for cleavage in PARP protein.
FIG. 13. Br-ORM decreases proliferation and colony formation of cervical cancer cells. FIG. 13A. Effect of Br-ORM on cell viability of CaSki cells (i) and SiHa cells (ii). Briefly, cervical cancer cells were seeded (2500) in each well of 96-well plate and after overnight incubation; cells were treated with indicated concentrations of Br-ORM for 24 hours. Cell viability was assessed by MTS assay. […] Bar graphs indicating quantification of colony formation in CaSki (i), and SiHa (ii) cells of cervical cancer with respect to vehicle control. […] Briefly, cervical cancer cells were treated with Br-ORM (10 μM) for 24 hours and the apoptosis inducing effect of Br-ORM was analyzed by Annexin V staining. […] The equal loading of protein in each lane was determined by probing the blots with β-actin antibody (FIG. 13F). […] Br-ORM arrests cell cycle in G1/S phase as determined by flow cytometry. […]

SiHa cells = experiment: Cell migration (agarose bead, scratch wound), SiHa; type: cell-based, human; settings: 0 and 48 hours
Experimental: FIGS. 7B and 7D show the effect of ORM-Br on motility potential of CaSki cells (FIG. 7B) and SiHa cells (FIG. 7D) as predicted by agarose bead assay. The images shown in FIGS. 7A-7D represent the migratory cells (MC) in control and ORM-Br treated groups at 0 and 48 hours. In FIGS. 7B and 7D, AB means agarose beads. In FIGS. 7A-7D the images magnification were at 4.
Cell motility was performed by in vitro scratch wound assay. Briefly, cells were seeded in a 12-wells plate and after 80-90% confluency a standardized wound was made using a 200 μL micropipette tip. Cells were then treated with Br-ORM (10 μM) and photographed by phase contrast microscopy. […]
FIG. 14. […] Effect of Br-ORM on cell migration of cervical cancer cells as determined by agarose bead (FIG. 14A), scratch wound healing (FIG. 14B), and Boyden chamber assay (FIG. 14C). […] Closure of wound was determined and photographed using phase contrast microscopy. […] Bar graph represent the quantification of migrated CaSki cells of control and Br-ORM treated groups (FIG. 14C(ii)). […] Effect of Br-ORM treatment on invasion of CaSki cells as determined by a commercially available kit (BD Biosciences) as described in materials and methods. In brief, 24 hours post-treatment of Br-ORM, invaded cells were fixed, stained and counted. […] Bar graph represent the quantification of invaded CaSki cells of control and Br-ORM treated groups (FIG. 14D(ii)). […]

SMILES: COc1ccc2c(c1)OC(C)(C)C(c1ccc(Br)cc1)C2c1ccc(OCCN2CCCC2)cc1 (stereo not drawn) [ORM-Br]
- protein levels of cleaved PARP [1]: dose dependently enhanced the protein levels of cleaved PARP
- cell migration / motility (SiHa cells): inhibits the migration
- cell migration / motility (SiHa cells; listed as Br-ORM): dose dependent inhibition of migration abilities
